Measured values: patent publication US5702728A, “Clam extract preparation, the method of preparation and use thereof” (priority 1993, dated 1997)

Legend:
[1] = test system: Pain Threshold of Tail Roots of Mice Caused by Electric Irritation; assay: Pain threshold of tail roots of mice, electric irritation; assay type: in vivo; conditions: 7.5 mg/kg; for Pain threshold: before medication 0.22 ± 0.08, P < 0.05; for Increasing percentage of the pain threshold: intrarectal, P < 0.01 vs control
Protocol: (§1) The purpose of the test is to observe effects of the suppository prepared by the clam extract composition of the invention on pains of mice caused by chemical and electric irritation, and the time of initiation and duration of the effect.
(§2) The clam extract composition of the invention was dissolved in 2 mol acetic acid and the pH value was adjusted to be 6.5~7.0. Then normal saline in an adequate amount was added.
(§3) Indomethacin: produced by Nantong Second Pharmaceutical Factory, with the lot number of 860321, which was formulated into a suspension with 2% of water-soluble starch paste.
An electric stimulator of Model NEN-7103, and an isolator of Model SS-102J, made in Japan.
After fasting for 12 hours, 50 mice were randomly allotted into 5 groups based on their body weight and sex. The root of mouse's tail was stimulated with electric current of square wave (10 ms of pulse width and 1 Hz of the frequency). The pain threshold was determined as the electric intensity which just makes the mouse screaming. The drug was intrarectally administered with the volume of 0.05 ml per mouse. […]

[2] = test system: Body Torsion Reaction of Mice Caused by Acetic Acid; assay: Body torsion reaction of mice caused by acetic acid, oral administration; assay type: in vivo, Kunming strain mice; conditions: 0.03 (head mg/kg; text 30 mg/kg)
Protocol: Clam extract composition of the invention was dissolved in 2N acetic acid and the pH value was adjusted to be 6.5~7.0. The normal saline in an adequate amount was added to formulate a solution. Indomethacin: produced by Shijiazhuang Pharmaceutical Factory, with the lot number of 009011021, which was formulated into a suspension with 2% of starch paste.
Kunming strain mice, male and female, with body weight of 20±2 g, provided by the Department of Animals of Beijing Medical University.
Fifty mice were randomly allotted into 5 groups based on their body weight and sex. In the control group, 0.2 ml/kg body weight of normal saline was administered per oral; while in the positive group, 30 mg/kg of indomethacin was administered per oral. […] 90 minutes later, 0.2 ml of 0.6% acetic acid per mouse was intraperitoneally injected and the number of body torsion reactions (abdominal excavation, extension of trunk and hind limbs, and elevation of buttock) of the mouse observed within 15 minutes after the injection of acetic acid was recorded.

[3] = test system: Body Torsion Reaction of Mice Caused by Acetic Acid; assay: Body torsion reaction of mice caused by acetic acid, intrarectal administration; assay type: in vivo; conditions: 7.5 mg/kg
Protocol: as §1, §2, §3
After fasting for 12 hours, 60 mice were randomly allotted into 6 groups based on their body weight and sex. The drug was intrarectally administered in the dosage indicated in Table 3 and the volume of drug administered was 0.05 ml per mouse. 35 minutes later, 0.20 ml of 0.6% acetic acid was intraperitoneally injected to each mouse. The number of body torsion reactions (abdominal excavation, extension of trunk and hind limbs, and elevation of buttock) observed within 15 minutes after the injection of acetic acid was recorded.

`COc1ccc2c(c1)c(CC(=O)O)c(C)n2C(=O)c1ccc(Cl)cc1` [Indomethacin] was tested, and the Pain threshold ([1]; 20 min, control 0.25 ± 0.08) was 0.32 ± 0.06 mA, the Pain threshold ([1]; 40 min, control 0.28 ± 0.11) was 0.41 ± 0.12 mA and the Pain threshold ([1]; 60 min, control 0.26 ± 0.13) was 0.44 ± 0.15 mA. For the same molecule, the Pain threshold ([1]; 90 min, control 0.26 ± 0.13) was 0.41 ± 0.13 mA, the Pain threshold ([1]; 120 min, control 0.25 ± 0.11) was 0.38 ± 0.13 mA and the “Increasing percentage of the pain threshold” value (“Increasing percentage” below) ([1]; 20 min) was 37.4 ± 18.4 percentage. For the same molecule, the “Increasing percentage” value ([1]; 40 min) was 71.4 ± 39.4 percentage, the “Increasing percentage” value ([1]; 60 min) was 86.3 ± 45.9 percentage and the “Increasing percentage” value ([1]; 90 min) was 72.5 ± 59.1 percentage. For the same molecule, the “Increasing percentage” value ([1]; 120 min) was 69.6 ± 62.3 percentage, the Inhibition rate [2] was 93.7% and the “Number of body torsions” value ([2]; control 44.1 ± 12.8, P < 0.01) was 2.8 ± 4.8 n. For the same molecule, the Inhibition rate [3] was 93.1% and the “Number of body torsions” value ([3]; control 39.3 ± 14.4) was 2.7 ± 4.1 n.
